According to article PMC9121441 (Molecular pharmaceutics, 2019):
Read-outs that look alike come from different tables or passages of the source.

Columns and labels:
CYP2B6 [1] = target: T1, CYP2B6 (Homo sapiens, UniProt P20813); experiment: Ketamine demethylation measured by norketamine formation; assay type: in vitro ADME; conditions: for Km at 10 min: human, pH 7.4, Km
T1 sequence (P20813 1-491): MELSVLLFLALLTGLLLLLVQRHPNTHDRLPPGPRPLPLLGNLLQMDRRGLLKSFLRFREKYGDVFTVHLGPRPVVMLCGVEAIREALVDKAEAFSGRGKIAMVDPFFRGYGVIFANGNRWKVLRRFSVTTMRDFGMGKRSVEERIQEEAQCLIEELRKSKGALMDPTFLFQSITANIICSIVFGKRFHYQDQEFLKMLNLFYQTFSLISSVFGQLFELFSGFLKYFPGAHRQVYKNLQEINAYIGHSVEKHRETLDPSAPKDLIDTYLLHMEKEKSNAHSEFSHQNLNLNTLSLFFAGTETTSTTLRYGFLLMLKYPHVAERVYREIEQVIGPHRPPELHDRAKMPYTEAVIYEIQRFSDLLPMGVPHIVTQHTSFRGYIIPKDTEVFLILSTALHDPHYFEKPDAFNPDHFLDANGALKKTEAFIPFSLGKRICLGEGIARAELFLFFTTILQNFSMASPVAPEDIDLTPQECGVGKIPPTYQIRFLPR

CYP2B6 [2] = target: T1, CYP2B6; experiment: Ketamine demethylation measured by formaldehyde formation; conditions: product formaldehyde
CYP2B6 [3] = target: T1, CYP2B6; conditions: human liver microsomes; cited from earlier work
[4] = oral ketamine, first-pass metabolism; cited from earlier work
[5] = N-demethylation, product R-norketamine
[6] = N-demethylation, product S-norketamine

Work on `CN[C@@]1(c2ccccc2Cl)CCCCC1=O` [R-ketamine] yielded a Km (CYP2B6 [1]; [5]) of 11 ± 1 µM, a Vmax (CYP2B6 [1]; [5]) of 65 ± 1 pmol・min^−1・pmol CYP^−1 and a Clint (CYP2B6 [1]; Vmax/Km, product R-norketamine) of 5.7 ml・min^–1・nmol P450^–1. It also gave a Vmax (CYP2B6 [2]; N-demethylation) of 92 ± 2 pmol・min^−1・pmol CYP^−1 and a Clint (CYP2B6 [2]; in vitro intrinsic clearance Vmax/Km) of 6.2 ml・min^–1・nmol P450^–1.
In the case of `CN[C@]1(c2ccccc2Cl)CCCCC1=O` [S-ketamine], the Km at 10 min (CYP2B6 [1]; [6]) is given as 10 ± 1 µM and the Km (CYP2B6 [3]) is given as 44 µM.
For `CNC1(c2ccccc2Cl)CCCCC1=O` (stereo not shown) [ketamine, 2-(2-chlorophenyl)-2-(methylamino)cyclohexan-1-one], the Km at 10 min (CYP2B6 [1]; [5]) is listed as 4 ± 1 µM, the Km at 10 min (CYP2B6 [1]; [6]) is listed as 5 ± 1 µM and the oral bioavailability [4] is listed as 15%.
